From patent US9387225B2, “Gold-platinum based bi-metallic nanocrystal suspensions, electrochemical manufacturing processes therefor and uses for the same” (GR INTELLECTUAL RESERVE, LLC, a Nevada LLC, priority 2011, dated 2016)
Like-named read-outs stand apart in the source and are kept apart here.

Experiments:
HCT116 tumors [1] = assay type: in vivo
Description: (§1) Female Balb/C, immunologically deficient recipient mice (6-8 weeks old) had tumors implanted therein. The Balb/C donor mice were used to grow HCT116 tumors, which tumors were excised therefrom and subsequently sectioned into small fragments about 2 mm^3 in size. The Balb/C recipient mice were given brief general anesthesia and then one HCT116 2 mm^3 tumor fragment from the donor mice was implanted into each of the left and right flank of the recipient mice using a trocar needle. Once the tumors in the recipient mice had reached a measurable size of about 4×4 mm, as measured by calipers placed against each mouse skin, the recipient mice were randomly placed into treatment groups, 8 per group and the oral treatment was started. 8 mice were in the positive control group (“Cisplatin”) and 8 mice were in the negative control group and received only water (“Control”). Treatment was given exclusively via the drinking bottle shared between the mice in each Treatment group. Cisplatin was given by intraperitoneal injection on day 0. Tumor size was assessed five times per week using a pair of calipers and mouse weight was also obtained by a scale, such measuring occurring until the mouse died (or was removed from the study) or the study was terminated as scheduled.
• Species: Mice • Strain: Balb/C immunodeficient mice • Source: Harlan • Gender and number: Female, 36 • Age: About 6-8 weeks old at the start of the study. • Identification: Each mouse was given a unique identity number. • Animal husbandry: On receipt, all animals were examined for external signs of ill-health and all unhealthy animals were excluded from further evaluation. Animals were housed in groups of three under specific pathogen free (spf) conditions, in a thermostatically monitored room (22±4° C.) in an animal unit. Animals were equilibrated under standard animal house conditions for at least 72 hours prior to use. The health status of the animals was monitored throughout this period and the suitability of each animal for experimental use was assessed prior to study start. • Housing Animals were housed in groups of 3 per cage in a controlled room, to ensure correct temperature, humidity and 12 hour light/dark cycle for the duration of the study. • Diet: Irradiated pellet diet and water was available ad libitum throughout the holding, acclimatisation and post-dose periods. Compound and Reagents • HCT 116 cell line (ATCC CCL-247). • Phosphate buffered saline (“PBS”). • Test compounds: gold nanocrystal suspension NE-28-10X (NE-28 produced equivalent to • NE10214 in Example 1) Concentrated 10×. • Positive control compound: cisplatin. • Negative control compound: drinking water. Treatment Groups and Dosages • Negative Control Group 1: Days 0-21, given normal drinking water. • Positive Control Group 2: Days 0-21, given normal drinking water; and given a one-time cisplatin dose of 8 mg/kg by intraperitoneal injection (“IP”) on day 0. • Treatment Group 3: Days 0-21, given test compounds as their drinking water. Protocol A: Preparation and Growth of Donor Tumors
(§2) a.) Preparation of Tumor Cells • 1. Cells were grown in complete medium and all contaminants were excluded. • 2. When the cells were approximately 70-80% confluent, then approximately 3-4 hours before harvesting, the old cell growth medium was replaced with fresh cell growth medium to remove any dead and/or detached cells. • 3. […] The cells were then placed on a glass slide in the traditional manner and were counted using a hemocytometer. • 5. […]

H460 tumors = test: Xenograft cancer study in mice, H460, oral administration (Example 20e); assay type: in vivo, mouse
Description: Female Balb/C, immunologically deficient recipient mice (6-8 weeks old) had tumors implanted therein. The Balb/C donor mice were used to grow H460 tumors, which tumors were excised therefrom and subsequently sectioned into small fragments about 2 mm^3 in size. The Balb/C recipient mice were given brief general anesthesia and then one H4602 mm^3 tumor fragment from the donor mice was implanted into each of the left and right flank of the recipient mice using a trocar needle. Once the tumors in the recipient mice had reached a measurable size of about 4×4 mm, as measured by calipers placed against each mouse skin, the recipient mice were randomly placed into treatment groups, 8 per group and the oral treatment was started. 8 mice were in the positive control group (“Cisplatin”) and 8 mice were in the negative control group and received only water (“Control”). Treatment was given exclusively via the drinking bottle shared between the mice in each Treatment group. Cisplatin was given by intraperitoneal injection on day 0. Tumor size was assessed five times per week using a pair of calipers and mouse weight was also obtained by a scale, such measuring occurring until the mouse died (or was removed from the study) or the study was terminated as scheduled.
• Species: Mice • Strain: Balb/C immunodeficient mice • Source: Harlan • Gender and number: Female, 36 • Age: About 6-8 weeks old at the start of the study. • Identification: Each mouse was given a unique identity number. • Animal husbandry: On receipt, all animals were examined for external signs of ill-health and all unhealthy animals were excluded from further evaluation. Animals were housed in groups of three under specific pathogen free (spf) conditions, in a thermostatically monitored room (22±4° C.) in an animal unit. Animals were equilibrated under standard animal house conditions for at least 72 hours prior to use. The health status of the animals was monitored throughout this period and the suitability of each animal for experimental use was assessed prior to study start. • Housing Animals were housed in groups of 3 per cage in a controlled room, to ensure correct temperature, humidity and 12 hour light/dark cycle for the duration of the study. • Diet: Irradiated pellet diet and water was available ad libitum throughout the holding, acclimatisation and post-dose periods. Compound and Reagents • H460cell line (ATCC HTB-177). • Phosphate buffered saline (“PBS”). • Test compounds: Au—Pt bi-metallic nanocrystal suspensions. • Positive control compound: cisplatin. • Negative control compound: drinking water. Treatment Groups and Dosages • Negative Control Group 1: Days 0-21, given normal drinking water. • Positive Control Group 2: Days 0-21, given normal drinking water; and given a one-time cisplatin dose of 8 mg/kg by intraperitoneal injection (“IP”) on day 0. • Treatment Group 3-5: Days 0-21, given test compounds as their drinking water. Protocol A: Preparation and Growth of Donor Tumors
as §2

HCT116 tumors [2] = test: Xenograft cancer study in mice, HCT116, oral administration (Example 20d); assay type: in vivo, mouse
Description: as §1
• Species: Mice • Strain: Balb/C immunodeficient mice • Source: Harlan • Gender and number: Female, 36 • Age: About 6-8 weeks old at the start of the study. • Identification: Each mouse was given a unique identity number. • Animal husbandry: On receipt, all animals were examined for external signs of ill-health and all unhealthy animals were excluded from further evaluation. Animals were housed in groups of three under specific pathogen free (spf) conditions, in a thermostatically monitored room (22±4° C.) in an animal unit. Animals were equilibrated under standard animal house conditions for at least 72 hours prior to use. The health status of the animals was monitored throughout this period and the suitability of each animal for experimental use was assessed prior to study start. • Housing Animals were housed in groups of 3 per cage in a controlled room, to ensure correct temperature, humidity and 12 hour light/dark cycle for the duration of the study. • Diet: Irradiated pellet diet and water was available ad libitum throughout the holding, acclimatisation and post-dose periods. Compound and Reagents • HCT 116 cell line (ATCC CCL-247). • Phosphate buffered saline (“PBS”). • Test compounds: Au—Pt bi-metallic nanocrystal suspensions. • Positive control compound: cisplatin. • Negative control compound: drinking water. Treatment Groups and Dosages • Negative Control Group 1: Days 0-21, given normal drinking water. • Positive Control Group 2: Days 0-21, given normal drinking water; and given a one-time cisplatin dose of 8 mg/kg by intraperitoneal injection (“IP”) on day 0. • Treatment Group 3-5: Days 0-21, given test compounds as their drinking water. Protocol A: Preparation and Growth of Donor Tumors
as §2

[3] = HCT116 xenograft, oral, versus Group 1 (Control)
[4] = tumor doubling time, HCT116 xenograft, oral
[5] = tumor doubling time, H460 xenograft, oral

N.N.[Cl][Pt][Cl] [cisplatin]
Growth Delay (HCT116 tumors [1]; [3]): 0.9 days
Maximum % Weight Loss (HCT116 tumors [1]; mouse, in vivo, po): 5%
Maximum % Weight Loss, day (d) of maximum (HCT116 tumors [1]; mouse, in vivo, po): 2 days
Mean Time to RTV2 (HCT116 tumors [1]; [4]): 3.9 days
Median Time to RTV2 (HCT116 tumors [1]; [4]): 3.5 days
Growth Delay (H460 tumors; H460 xenograft, oral, versus Group 1 (Control)): 2.5 days
Maximum % Weight Loss (H460 tumors; mouse, in vivo, po): 6%
Maximum % Weight Loss, day (d) of maximum (H460 tumors; mouse, in vivo, po): 3 days
Mean Time to RTV2 (H460 tumors; [5]): 5.0 days
Median Time to RTV2 (H460 tumors; [5]): 5.0 days
Growth Delay (HCT116 tumors [2]; [3]): 1.7 days
Maximum % Weight Loss (HCT116 tumors [2]; mouse, in vivo, po): 5%
Maximum % Weight Loss, day (d) of maximum (HCT116 tumors [2]; mouse, in vivo, po): 7 days
Mean Time to RTV2 (HCT116 tumors [2]; [4]): 5.2 days
Median Time to RTV2 (HCT116 tumors [2]; [4]): 5.2 days
